{"source": "patent US12016860B2", "about": "“Combination therapies with Cbl-b inhibitor compounds” (Nurix Therapeutics, Inc., priority 2021, dated 2024)", "key": {"[1]": {"test_system": "total primary human T-cells", "test": "IL-2 and IFN-γ release (ELISA) from stimulated primary human T-cells", "format": "cell-based", "conditions": "primary human T-cells stimulated with anti-CD3, with and without CD28 co-stimulation; lesser degree without co-stimulation", "experimental": "Cells were stimulated with plate bound anti-CD3 (right) or anti-CD3/anti-CD28 (left) in the presence or absence of the indicated concentration of compound 23. Release of IL-2 or IFN-γ were assessed by ELISA. Compound 23 inhibition of Cbl-b enhanced IL-2 and IFN-γ secretion in primary human T-cells stimulated with anti-CD3 antibodies, in both the presence and absence of CD28 co-stimulation, although to a lesser degree in the absence of co-stimulation."}, "CT26 tumors [2]": {"test_system": "CT26 tumors", "test": "CT26 tumor volume in mice, single agent oral dosing", "format": "in vivo", "conditions": "oral administration in mice; colon carcinoma model CT26", "experimental": "Mice bearing tumors on their left and right flanks were treated from Day 7 to Day 32 with oral compound 23 at 10 mg/kg (blue circles) or 30 mg/kg (red circles) or vehicle (black squares). Volumes at Day 25 are indicated. Statistics were calculated with one-way ANOVA and Dunn's multiple comparisons test **P≤0.01."}, "4T1 tumors": {"test_system": "4T1 tumors", "test": "4T1 metastatic breast carcinoma survival model with primary tumor resection", "format": "in vivo, mice", "from_the_text": "Another in vivo study evaluated the ability of compound 23 treatment, started before the primary tumor resection, to eradicate 4T1 breast carcinoma metastatic disease. The 4T1 triple negative mammary carcinoma is a transplantable tumor cell line that is highly tumorigenic and invasive and, unlike most tumor models, spontaneously metastasizes from a primary tumor growing in the mammary gland to multiple distant sites including lymph nodes, blood, liver, lung, brain, and bone. Tumor cells are easily transplanted into the mammary glands so that the primary tumor grows in the anatomically relevant site. The progressive spread of 4T1 metastases to other organs is very similar to that of human mammary cancer. Animals die from disseminated metastatic disease regardless of resection of the primary tumor (Pulaski et al., 2000, Current Protocols in Immunology 39(1):20.2.1-20.2.16). […] Beginning on Day 7, tumor volumes were measured twice weekly until they reached a mean tumor volume of 145 mm^3 when the primary tumors were resected on Day 14 and 15 (dotted line). Median survival time were calculated for each group and body weights were monitored until the end of the study on Day 140. Body weights were measured twice weekly then once weekly starting Day 47. […] Statistical significance of differences in conditional survival between groups was evaluated using the Log-rank (Mantel-Cox) test. […] Median survival is reported as undefined for the compound 23 group, as survival exceeds 50% at Day 140."}, "CT26 tumors [3]": {"test_system": "CT26 tumors", "test": "CT26 tumor model with depleting antibodies for CD4+, CD8+ or NK cells", "format": "in vivo, mice", "conditions": "30 mg/kg PO QD Day 9 to 25", "experimental": "Tumor volume at Day 25 is indicated. CD8+ T-cell or NK cell depletion abrogates compound 23 activity. Stats were calculated with Mann-Whitney (Vehicle vs. compound 23) or one-way ANOVA with Dunn's multiple comparisons test (compound 23 vs. Depletion groups); (*P≤0.05, **P≤0.01, ****P≤0.0001). The efficacy of compound 23 on tumors is CD8+ T function and on NK cell function."}, "CT26 tumors [4]": {"test_system": "CT26 tumors", "test": "CT26 model, combination with anti-PD-1 antibody", "format": "in vivo, mice", "experimental": "(§1) This example provides assays and results for treating tumor models in vivo with combinations of Cbl-b compounds and anti-PD1 antibodies as described herein. The antibody is a mouse anti-PD1 RMP1-14 antibody, useful in mouse in vivo assays as model for administration of human PD-1 axis antagonists for treatment of human cancer.\nFIG. 6 provides results in three tumor models. […] Beginning on Day 10, tumor volumes were measured twice weekly."}, "MC38 tumors": {"test_system": "MC38 tumors", "test": "MC38 model, combination with anti-PD-1 antibody", "format": "in vivo, mice", "experimental": "as §1\nBeginning on Day 10, tumor volumes were measured twice weekly."}, "orthotopic 4T1 tumors": {"test_system": "orthotopic 4T1 tumors", "test": "Flow cytometry of tumor and blood CD8+ T-cells in 4T1-tumor-bearing mice", "format": "in vivo", "conditions": "Day 28"}, "CT26 tumors [5]": {"test_system": "CT26 tumors", "test": "Flow cytometry of tumor-infiltrating immune cells in CT26 tumors", "format": "in vivo, mice", "experimental": "CT26 tumors were harvested after 19 doses of compound 23 or vehicle and tumor-infiltrating immune cell density and phenotype was assessed by flow cytometry."}, "[6]": {"test_system": "BT549 (BRCA wild type) cells", "test": "Caspase 3/7 apoptosis Incucyte assay with olaparib, BT549", "format": "cell-based", "conditions": "1 μM compound 23, 0.05 μM olaparib, vs 0.05% DMSO, combination also vs single agents p<0.0001", "experimental": "(§2) BT549 (BRCA wild type) (A) and DoTc 4510 (BRCA2 mutated) (B) cells were seeded in duplicate into tissue culture treated black-sided, clear-bottom 96-well plates at 5,000^cells/well and allowed to adhere and establish for 24 h. Cells were treated with indicated concentrations of DMSO, compound 23, or Olaparib (FIGS. 13A and 13B) either alone or in combination and were labelled with 1× Essen Bioscience IncuCyte® Caspase-3/7 Green Reagent (final concentration 5 μM). Treated plates were imaged every 2 hours for 72 hours with the IncuCyte® S3 Live-Cell Analysis System. At each timepoint, one image per well was taken in both brightfield and FITC channels on the IncuCyte® S3 Live-Cell Analysis System. Images were analyzed for number of green objects per mm^2 using the IncuCyte S3 v2017A software.\nUsing a caspase 3/7 apoptosis Incucyte assay, the effect of compound 23, PARPi and the combination of compound 23, and PARPi on tumor cell apoptosis was assessed in both BRCA wild type and mutated tumor cell lines in vitro."}, "[7]": {"test_system": "DoTc 4510 (BRCA2 mutated) cells", "test": "Caspase 3/7 apoptosis Incucyte assay with olaparib, DoTc 4510", "format": "cell-based", "conditions": "vs 0.05% DMSO, combination also vs single agents p<0.0001", "experimental": "as §2"}, "[8]": {"conditions": "blood of 4T1-tumor-bearing mice"}}, "data": [{"smiles": "C[C@H]1CCCN(Cc2cc3c(c(C(F)(F)F)c2)CN(c2cccc([C@]4(c5nncn5C)C[C@@H](C)C4)c2)C3=O)C1", "note": "[compound 23]", "values": [{"measurement": "IFN-γ secretion", "setting": "[1]", "value": "enhanced"}, {"measurement": "IL-2 secretion", "setting": "[1]", "value": "enhanced"}, {"measurement": "anti-tumor activity", "setting": "CT26 tumors [2]", "value": "significant anti-tumor activity"}, {"measurement": "median survival time compared to vehicle control", "setting": "4T1 tumors; 30 mg/kg daily PO Day 8 to 46, primary tumors resected Day 14 and 15", "value": "significantly increased"}, {"measurement": "median survival", "setting": "4T1 tumors; 30 mg/kg daily PO, study end Day 140", "value": "undefined"}, {"measurement": "anti-tumor activity", "setting": "4T1 tumors; oral administration in mice, metastatic triple negative breast tumor model 4T1", "value": "significant anti-tumor activity"}, {"measurement": "effect of CD8+ T-cell depletion on compound activity (tumor volume at Day 25)", "setting": "CT26 tumors [3]", "value": "abrogates"}, {"measurement": "effect of NK cell depletion on compound activity (tumor volume at Day 25)", "setting": "CT26 tumors [3]; anti-asialo-GM1", "value": "abrogates"}, {"measurement": "interaction with PD-1 antibody blockade", "setting": "CT26 tumors [4]", "value": "synergizes"}, {"measurement": "TGI", "setting": "CT26 tumors [4]; compared to vehicle controls, compound 23 30 mg/kg daily PO, anti-PD-1 10 mg/kg twice weekly IP", "value": 62, "unit": "%"}, {"measurement": "tumor volume compared to vehicle controls", "setting": "CT26 tumors [4]; compound 23 30 mg/kg daily PO", "value": "significantly reduced tumor volume"}, {"measurement": "median survival time", "setting": "CT26 tumors [4]; compound 23 30 mg/kg daily PO, anti-PD-1 10 mg/kg twice weekly IP, controls 27 days", "value": 38, "unit": "days"}, {"measurement": "interaction with PD-1 antibody blockade", "setting": "MC38 tumors", "value": "synergizes"}, {"measurement": "primary tumor volume", "setting": "MC38 tumors; single agents vs vehicle, combination vs vehicle or either single agent", "value": "significantly smaller primary tumors"}, {"measurement": "frequency of tumor gp70 antigen-specific CD8+ T-cells (AH1 Dextramer+CD8+)", "setting": "orthotopic 4T1 tumors; 4T1 tumors, 30 mg/kg daily PO", "value": "increased"}, {"measurement": "frequency of tumor gp70 antigen-specific CD8+ T-cells with exhaustion phenotype (PD-1+ LAG3+)", "setting": "orthotopic 4T1 tumors; 4T1 tumors, 30 mg/kg daily PO", "value": "decreased"}, {"measurement": "frequency of circulating CD8+ T-cells with activated phenotype (PD-1+)", "setting": "orthotopic 4T1 tumors; [8]", "value": "increased"}, {"measurement": "frequency of circulating CD8+ T-cells with memory phenotype (CD44+CD27+CD127+)", "setting": "orthotopic 4T1 tumors; [8]", "value": "increased"}, {"measurement": "CD8+ T-cells to Tregs ratio", "setting": "CT26 tumors [5]; 19 doses", "value": "increased"}, {"measurement": "CD8+ effector T-cells (PD1+) to Tregs ratio", "setting": "CT26 tumors [5]; 19 doses", "value": "increased"}, {"measurement": "frequency of CD8+ T-cells that express the activation marker CD29", "setting": "CT26 tumors [5]; 19 doses", "value": "increased"}, {"measurement": "frequency of total CD3+ T-cells as a percentage of CD45+ leukocytes", "setting": "CT26 tumors [5]; 19 doses", "value": "increased"}, {"measurement": "frequency of total CD8+ T-cells as a percentage of CD45+ leukocytes", "setting": "CT26 tumors [5]; 19 doses", "value": "increased"}, {"measurement": "frequency of tumor-infiltrating NK cells with cytotoxic phenotype (Granzyme+)", "setting": "CT26 tumors [5]; 19 doses", "value": "increased"}, {"measurement": "number of total CD8+ T-cells per gram of tumor", "setting": "CT26 tumors [5]; 19 doses", "value": "increased"}, {"measurement": "number of tumor-infiltrating leukocytes (TIL) per gram of tumor", "setting": "CT26 tumors [5]; 19 doses 30 mg/kg daily PO", "value": "increased"}, {"measurement": "tumor cell apoptosis (caspase 3/7)", "setting": "[6]", "value": "did not undergo a significant increase in apoptosis"}, {"measurement": "tumor cell apoptosis (caspase 3/7)", "setting": "[7]", "value": "did not significantly increase tumor cell apoptosis"}]}]}
